The source of these data is article PMC9697349, “Mouse Pharmacokinetics and In Vitro Metabolism of SH-11037 and SH-11008, Synthetic Homoisoflavonoids for Retinal Neovascularization” (Pharmaceutics, 2022).

A short description of this data set: Metabolic stability of SH-11008 in human liver S9 fractions. The class given is in vitro ADME. On the procedure: For studies using NADPH or PAPS as a cofactor, 4 μL of SH-11008 (40 μM) solution in 40 vol% CH3CN were mixed with 40 μL of 4 mg protein/mL HLS9 or MLS9 fractions diluted in 0.1 M potassium phosphate buffer (pH 7.4) and 100 μL of 0.1 M potassium phosphate buffer (pH 7.4). When using UDPGA as a cofactor, 32 μL of UGT Reaction Mix Solution B and 68 μL of de-ionized water were used instead of 100 μL of 0.1 M potassium phosphate buffer (pH 7.4). The mixture was warmed at 37 °C for 5 min. The reaction was then initiated by adding 16 μL of 10 mM cofactor dissolved in de-ionized water. The assay condition for UDPGA was used for metabolic stability studies conducted with a mixture of the three cofactors. The reaction was terminated at selected times by adding 160 μL of ice-cold CH3CN containing glipizide (500 ng/mL) as the IS. The resulting mixture was vortexed, sonicated, and centrifuged at 3000× g for 20 min. Aliquots of the supernatant were subjected to LC-MS/MS analysis described below in Section 2.6.2.
The LC-MS/MS system consisted of Agilent 1290 Infinity HPLC system and Agilent 6530 Accurate-Mass Quadrupole Time-of-Flight (Q-TOF) mass spectrometer equipped with dual AJS ESI ion source (Agilent Technologies Korea, Seoul, Korea). Chromatographic separation was performed on an Agilent Eclipse Plus C18 column (2.1 × 100 mm, 3.5 μm) with a Phenomenex Security Guard C18 guard column (4 × 20 mm) maintained at 40 °C. The mobile phase consisted of 0.1% formic acid in deionized water (A) and 0.1% formic acid in CH3CN (B): 0~2 min 5% B, 2~7 min to 95% B, and 7~10 min 95% B. Total run time including a 5 min equilibration time was 15 min. The flow rate was 0.4 mL/min. The injection volume was 5 µL. The mass spectrometer was operated in a positive Auto MS/MS scan mode with a full scan mass range of m/z 100–1000, fragmentor voltage 150 V, and CE 30 eV, selecting the two most intense precursor ions for collision-induced dissociation. Putative metabolites were identified using Agilent Mass Hunter Metabolite ID software (ver.B.04.00) followed by manual interpretation of the spectral data. Chromatograms and mass spectra were extracted using Agilent Mass Hunter Qualitative Analysis software (ver. B.05.00).
Pharmacokinetic parameters were calculated by noncompartmental analysis of plasma concentration versus time profiles using PKSolver. The scaling factors of mice and human, half-life (t1/2), intrinsic clearance (CLint), hepatic clearance (CLH), and hepatic extraction ratio (EH) were from the in vitro studies as described previously. […] The fraction of parent drug converted to the metabolite (fm) was calculated as follows:fm (%) = (AUC(m) × CL(m))/D × MWparent/MWmetabolite × 100,(1) where D is dose of the parent drug, AUC(m) is area under the curve for the metabolite after a dose of parent drug, CL(m) is CL of metabolite, and MW is molecular weight.

For `COc1ccc(CC2COc3cc(OC)c(OC)c(OC)c3C2=O)cc1O` (centres unmarked) [SH-11008], the “metabolic stability in the presence of NADPH” value (HLS9, NADPH 1 mM only, 30 min) is “stable”. For the setting “human, liver S9 fractions, SH-11008 1 µM, HLS9 1 mg protein/mL, mixture of NADPH, UDPGA and PAPS (1 mM), 37 °C”, the half-life at 1 µM was found to be 36 s. Further, the EH (human, predicted hepatic extraction ratio from HLS9 data) was 0.99. Also, the CLH (human, predicted with the well-stirred model from HLS9 data) is 1.19 L/h/kg. The CLint scaled at 1 µM (liver S9 fractions, human, scaled from in vitro t1/2 in HLS9) was determined as 215 L/h/kg.

A word on the half-life: it is how long it takes for the measured level to halve. By CLint scaled is commonly meant the rate of metabolic loss divided by the concentration.
